# Reference: patent US6835382B2, “Ii peptide therapeutics to enhance antigen presentation” (University of Massachusetts, priority 1996, dated 2004)
# Positions of bridges follow the written chain, without caps; N, C: chain ends. Non-standard residues stand in square brackets, D forms with d. No end group written: not given here. hArg = N=C(N)NCCCC[C@H](N)C(=O)O; Cit = NC(=O)NCCC[C@H](N)C(=O)O
# Target: T1, murine E^d MHC class II allele (Mus musculus, UniProt P01904+P01915)
# T1 sequence (P01904 26-255): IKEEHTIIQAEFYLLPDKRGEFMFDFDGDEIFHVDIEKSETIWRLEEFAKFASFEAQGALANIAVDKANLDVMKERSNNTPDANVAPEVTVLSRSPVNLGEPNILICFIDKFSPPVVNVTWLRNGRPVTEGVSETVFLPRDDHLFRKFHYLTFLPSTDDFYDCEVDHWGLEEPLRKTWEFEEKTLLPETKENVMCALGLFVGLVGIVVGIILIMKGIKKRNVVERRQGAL
# T1 sequence (P01915 27-264 limits assumed): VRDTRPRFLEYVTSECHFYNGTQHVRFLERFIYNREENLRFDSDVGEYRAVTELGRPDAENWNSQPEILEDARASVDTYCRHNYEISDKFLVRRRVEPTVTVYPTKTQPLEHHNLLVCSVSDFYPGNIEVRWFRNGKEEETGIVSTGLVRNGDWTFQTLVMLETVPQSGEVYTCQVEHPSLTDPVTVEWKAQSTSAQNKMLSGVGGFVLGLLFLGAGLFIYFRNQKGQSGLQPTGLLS
# Test: processed antigen assay, E^d allele (APC pulsed with native HEL)
# Type: cell-based
# Set-up: The A20 and CH27 B cell lymphoma lines express H-2^d and H-2^k alleles, respectively; endogenous in cells; host or cells: A20 B cell lymphoma (mitomycin C-treated or paraformaldehyde-fixed)
# Settings: AE peptide 64 μM; for Activity in processed antigen assay, E^d (baseline = 1.0): Table 34, native HEL 10 μM prepulse, supernatant 1:8; for T cell response relative to baseline (None = 1.0), E^d: Table 32, native HEL prepulse 20 μM; for T cell response relative to baseline (None = 1.0), E^d / T cell response relative to baseline (None = 1.00), E^d: supernatant dilution 1:4; for T cell response relative to baseline (None = 1.00), E^d: Table 31, native HEL prepulse 10 μM
# Protocol: In a third type of assay, the “processed antigen assay”, certain of the AE101 series of peptides inhibit stimulation of specific T cell hybridomas by antigenic peptides which are derived from the endogenous processing of a native protein antigen. This assay, which is related to the peptide prepulse assay, is performed by incubating APC with native protein antigen for 8 h, after which the pulsed APC are washed and treated with mitomycin C. Those pulsed APC are then combined with AE101 series peptides and T cell hybridomas and are incubated for 24 h. After that incubation, an aliquot of the culture supernatant is transferred to a second culture to measure T cell stimulation, as reflected in the effect of released interleukins on the growth of an interleukin-dependent, indicator cell line. During the 8 h incubation with native protein antigen, the protein antigen is taken into the APC. The native protein enters the processing pathway within the APC, where it is enzymatically cleaved to peptide fragments. Those peptide fragments with high affinity for the particular MHC class II molecules produced by the APC form antigenic peptide/MHC class II complexes which are transported to the cell surface. At the cell surface, the MHC class II molecules are contacted by the AE101 peptides, which cause the release of the antigenic peptide by the same mechanism proposed for the “peptide prepulse” assay above.
# The “processed antigen assay” was carried out under essentially the same conditions as the “peptide prepulse assay”, with the following modifications. Untreated APC were incubated at 1×10^6/mL in 24-well plates (1 mL/well) with native protein antigen for 8 h. Following that incubation, the pulsed APC were washed, treated with mitomycin C, and washed again. AE101 series peptide was added at 64 μM, 16 μM, 4 μM, and 1 μM concentrations for 24 h in the presence of the T cell hybridoma specific for the antigenic peptide. Interleukin release from these cultures was measured by proliferation of HT-2 cells to interleukins in supernatants transferred from the primary culture. The baseline T cell response was measured by culturing T hybridoma cells with the native antigen-prepulsed APC in the absence of AE101 series peptides.
# The “processed antigen assay” was carried out under essentially the same conditions as the “peptide prepulse” assay, with the following modifications. Untreated APC were incubated at 1×10^6/mL in 24-well plates (1 mL/well) with native protein antigen for 8 h. Following incubation, the pulsed APC were washed, treated with mitomycin C, and were washed again. The assay conditions were then as described for “peptide prepulse” above. The baseline T cell response was measured by culturing T hybridoma cells with the native antigen-prepulsed APC in the absence of AE101 peptides.
# Table 2.9: Activities of substitution series at Leucine^80 in AE114 in a processed antigen assay. […] The results in this assay constitute, relatively, a mirror image of the result in the simultaneous assay (Example 1, Table 7) and parallel those of the antigenic peptide prepulse assay (Example 5, Table 24). Untreated APC were incubated with native HEL, instead of antigenic peptide, for 8 h. After incubation, the pulsed cells were washed and mitomycin C treated before being cocultured with AE-peptides and T cell hybridomas. Wells containing only T cells and native HEL-prepulsed APC were used to determine the Baseline response, or 1, in the absence of AE peptides. The concentration of AE peptide used was 64 μM for these assays. The supernatant dilutions used in the HT-2 cell assay were 1:4 (first value) and 1:8 (second value).
Substance,"T cell response relative to baseline (None = 1.0), E^d",also measured
"cyclic LRMKLPK (bridge (positions not given here); also: cyclic, ring type not given here) [AE381, “head-to-tail” cyclization from the amino-terminus to the carboxyl-terminus of AE114]",–,"Activity in processed antigen assay, E^d (baseline = 1.0): 0.18"
Ac-LR HArg MYPK-NH2 [AE365],0.65,–
Ac-LR HArg KYP Cit-NH2 [AE366],0.53,–
Ac-LRMKLPK (lactam 4-C) [AE382],–,"Activity in processed antigen assay, E^d (baseline = 1.0): 0.61"
Ac-LRLKYPN-NH2 [AE368],0.55,–
Ac-LRMKYP[Cit]-NH2 [AE364],0.56,–
Ac-L[hArg]LKYPK-NH2 [AE361],0.51,–
Ac-LKMKYPK-NH2 [AE362],0.58,–
Ac-LK HArg KYPK-NH2 [AE363],0.75,–
Ac-A[Cit]NKNPK-NH2 [AE351],–,"T cell response relative to baseline (None = 1.00), E^d: 0.87"
Ac-L[hArg]MKYPK-NH2 [AE360],0.64,–
Ac-FK HArg MYP Cit-NH2 [AE371],0.61,–
Ac-LRMKYPN-NH2 [AE370],0.55,–
Ac-LRMKNPF-NH2 [AE350],–,"T cell response relative to baseline (None = 1.00), E^d: 0.56"
Ac-LR Orn K HArg PK-NH2 [AE340],–,"T cell response relative to baseline (None = 1.00), E^d: 0.16"
Ac-LRMMYP[Cit]-NH2 [AE367],0.69,–
